# Experiments:
# [1] = target: IDH1 R132H (Homo sapiens (Human), UniProt O75874, R132H); assay: In vitro assay for IDH1m (R132H) inhibitors, NADPH depletion with resazurin/resorufin detection; format: biochemical; conditions: IDH1 R132H enzyme, 50 minutes at room temperature; read-out: IDH R132H IC50
# Description: Assays were conducted in a volume of 76 μl assay buffer (150 mM NaCl, 10 mM MgCl2, 20 mM Tris pH 7.5, 0.03% bovine serum albumin) as follows in a standard 384-well plate: To 25 ul of substrate mix (8 uM NADPH, 2 mM aKG), 1 μl of test compound was added in DMSO. The plate was centrifuged briefly, and then 25 μl of enzyme mix was added (0.2 μg/ml IDH1 R132H) followed by a brief centrifugation and shake at 100 RPM. The reaction was incubated for 50 minutes at room temperature, then 25 μl of detection mix (30 μM resazurin, […]) was added and the mixture further incubated for 5 minutes at room temperature. The conversion of resazurin to resorufin was detected by fluorescent spectroscopy at Ex544 Em590 c/o 590.
# Representative compounds of formula (I) set forth in Tables 1 and 2 were tested in this assay and the results are set forth below in Table 4.
# [2] = target: IDH2 R140Q (Homo sapiens (Human), UniProt P48735, R140Q); assay: IDH2 R140Q enzymatic cofactor depletion assay (diaphorase/resazurin); format: biochemical; conditions: IDH2 R140Q enzyme, one hour preincubation with compound, one hour reaction; read-out: Enz R140Q
# Chain of IDH2 R140Q (P48735 40-452 R140Q): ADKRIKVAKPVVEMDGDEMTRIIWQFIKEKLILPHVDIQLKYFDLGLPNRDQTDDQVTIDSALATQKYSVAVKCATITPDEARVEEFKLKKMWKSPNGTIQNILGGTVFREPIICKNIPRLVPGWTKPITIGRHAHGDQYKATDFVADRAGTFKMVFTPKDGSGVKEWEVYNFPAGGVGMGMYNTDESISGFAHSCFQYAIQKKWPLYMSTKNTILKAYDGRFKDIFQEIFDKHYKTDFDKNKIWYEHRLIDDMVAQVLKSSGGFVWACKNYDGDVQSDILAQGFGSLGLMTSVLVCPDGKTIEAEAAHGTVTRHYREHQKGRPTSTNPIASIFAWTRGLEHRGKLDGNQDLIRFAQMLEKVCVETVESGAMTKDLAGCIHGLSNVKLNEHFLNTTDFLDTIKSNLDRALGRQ
# Summary of the method: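 Enzyme preincubated with compound 1 h at room temperature, then reaction started with 50 μM NADPH and 6.3 mM α-KG and run 1 h at room temperature. Remaining NADPH measured by diaphorase (36 μg/ml)/resazurin (60 μM) stop mix, fluorescence read at Ex544/Em590 after 1 min.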
# Chain of IDH1 R132H (O75874 whole entry R132H): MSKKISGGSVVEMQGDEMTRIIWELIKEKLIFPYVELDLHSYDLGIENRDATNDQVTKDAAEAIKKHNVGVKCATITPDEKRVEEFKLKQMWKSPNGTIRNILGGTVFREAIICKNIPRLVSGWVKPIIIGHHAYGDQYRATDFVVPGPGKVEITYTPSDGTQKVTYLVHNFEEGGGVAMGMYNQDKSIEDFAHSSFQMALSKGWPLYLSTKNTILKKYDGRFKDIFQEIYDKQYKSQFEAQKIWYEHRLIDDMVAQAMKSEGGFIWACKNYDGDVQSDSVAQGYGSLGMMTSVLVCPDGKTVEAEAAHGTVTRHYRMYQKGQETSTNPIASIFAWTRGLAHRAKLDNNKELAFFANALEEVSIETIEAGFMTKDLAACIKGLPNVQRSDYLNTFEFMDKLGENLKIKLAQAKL
SMILES,IC50 [1] [nM],IC50 [2] [nM]
Cc1cc(C)cc(NC(=O)Nc2ccc(C)c(S(=O)(=O)Nc3ccccc3)c2)c1 [Compound 210],1000 to 10000,–
Cc1ccc(NC(=O)Nc2cccc(C(F)(F)F)c2)cc1S(=O)(=O)Nc1ccc(-c2nn[nH]n2)cc1 [Compound 322],1000 to 10000,–
Cc1ccc(NC(=O)Nc2cccc(S(=O)(=O)Nc3ccc(Cl)cc3)c2)cc1S(=O)(=O)Nc1ccccc1 [Compound 335],1000 to 10000,–
"O=C(Nc1cccc(C(F)(F)F)c1)Nc1cc(S(=O)(=O)NCC(F)(F)F)ccc1Oc1cccnc1 [Compound 186, 4-(pyridin-3-yloxy)-N-(2,2,2-trifluoroethyl)-3-(3-(3-(trifluoromethyl)phenyl)ureido)benzenesulfonamide]",–,100 to 1000
O=C(Nc1ccc(F)c(C(F)(F)F)c1)Nc1cc(S(=O)(=O)NCC(F)(F)F)ccc1-c1cccnc1 [Compound 56],–,1000 to 10000
Cc1cc(C)cc(NC(=O)Nc2cc(S(=O)(=O)Nc3ccccc3)ccc2-c2ccsc2)c1 [Compound 16],–,1000 to 10000
"COc1ccccc1NC(=O)Nc1cc(S(=O)(=O)Nc2ccccc2)ccc1-c1ccsc1 [Compound 6, 3-(3-(2-methoxyphenyl)ureido)-N-phenyl-4-(thiophen-3-yl)benzenesulfonamide]",–,100 to 1000
Cc1ccc(NC(=O)Nc2cc(S(=O)(=O)Nc3ccccc3)ccc2-c2ccsc2)cc1C [Compound 17],–,1000 to 10000
"O=C(Nc1ccc(F)cc1)Nc1cc(S(=O)(=O)NCC(F)(F)F)ccc1-c1ccccc1 [Compound 39, 2-(3-(4-fluorophenyl)ureido)-N-(2,2,2-trifluoroethyl)-[1,1′-biphenyl]-4-sulfonamide]",–,100 to 1000
"Cc1nc(NC(=O)Nc2cc(S(=O)(=O)NCC(F)(F)F)ccc2-c2ccccc2)sc1Cl [Compound 101, 2-(3-(5-chloro-4-methylthiazol-2-yl)ureido)-N-(2,2,2-trifluoroethyl)-[1,1′-biphenyl]-4-sulfonamide]",–,100 to 1000
"Cc1cncc(NC(=O)Nc2cc(S(=O)(=O)NC3CC3)ccc2-c2ccsc2)c1 [Compound 29, N-cyclopropyl-3-(3-(5-methylpyridin-3-yl)ureido)-4-(thiophen-3-yl)benzenesulfonamide]",–,1000 to 10000
"CC(C)NS(=O)(=O)c1ccc(-c2ccsc2)c(NC(=O)Nc2cccc(C(F)(F)F)c2)c1 [Compound 115, N-isopropyl-4-(thiophen-3-yl)-3-(3-(3-(trifluoromethyl)phenyl)ureido)benzenesulfonamide]",–,100 to 1000
"CCc1ccc(S(=O)(=O)NCC(F)(F)F)cc1NC(=O)Nc1cccc(C(F)(F)F)c1 [Compound 339, 4-ethyl-N-(2,2,2-trifluoroethyl)-3-(3-(3-(trifluoromethyl)phenyl)ureido)benzenesulfonamide]",–,100 to 1000
"O=C(Nc1nccs1)Nc1cc(S(=O)(=O)NCC(F)(F)F)ccc1-c1ccccc1 [Compound 70, 2-(3-(thiazol-2-yl)ureido)-N-(2,2,2-trifluoroethyl)-[1,1′-biphenyl]-4-sulfonamide]",–,100 to 1000
CN(C)S(=O)(=O)c1ccc(-c2ccsc2)c(NC(=O)Nc2cccc(C(F)(F)F)c2)c1 [Compound 137],–,1000 to 10000
"CCc1cccc(NC(=O)Nc2cc(S(=O)(=O)Nc3ccccc3)ccc2-c2ccsc2)c1 [Compound 5, 3-(3-(3-ethylphenyl)ureido)-N-phenyl-4-(thiophen-3-yl)benzenesulfonamide]",–,100 to 1000
O=C(Nc1cccc(C(F)(F)F)c1)Nc1cc(S(=O)(=O)NC2CC2)cnc1N1CCCOCC1 [Compound 358],–,100 to 1000
"CN(c1ccccc1)c1ccc(S(=O)(=O)Nc2ccccc2)cc1NC(=O)Nc1cccc(C(F)(F)F)c1 [Compound 341, 4-(methyl(phenyl)amino)-N-phenyl-3-(3-(3-(trifluoromethyl)phenyl)ureido)benzenesulfonamide]",–,1000 to 10000
"O=C(Nc1cc(S(=O)(=O)NCC(F)(F)F)ccc1-c1ccccc1)n1ccc2ccccc21 [Compound 108, N-(4-(N-(2,2,2-trifluoroethyl)sulfamoyl)-[1,1′-biphenyl]-2-yl)-1H-indole-1-carboxamide]",–,100 to 1000

# Second part, the compound after the results:
IC50 [1] [nM],IC50 [2] [nM],SMILES
1000 to 10000,–,Cc1ccc(NC(=O)Nc2ccc(OC(F)(F)F)cc2)cc1S(=O)(=O)Nc1ccccc1 [Compound 208]
1000 to 10000,–,Cc1ccc(NC(=O)Nc2ccccc2C(C)(C)C)cc1S(=O)(=O)Nc1ccc(Cl)cc1 [Compound 255]
1000 to 10000,–,Cc1ccc(NC(=O)Nc2ccc(F)c(F)c2F)cc1S(=O)(=O)Nc1ccc(Cl)cc1 [Compound 248]
1000 to 10000,–,Cc1ccc(F)c(NC(=O)Nc2ccc(C)c(S(=O)(=O)Nc3ccc(Cl)cc3)c2)c1 [Compound 240]
–,100 to 1000,"O=C(Nc1cccc(C(F)(F)F)c1)Nc1cc(S(=O)(=O)NCC(F)(F)F)ccc1OCC1CC1 [Compound 175, 4-(cyclopropylmethoxy)-N-(2,2,2-trifluoroethyl)-3-(3-(3-(trifluoromethyl)phenyl)ureido)benzenesulfonamide]"
–,1000 to 10000,O=C(Nc1ccccc1O)Nc1cc(S(=O)(=O)Nc2ccccc2)ccc1-c1ccsc1 [Compound 13]
–,100 to 1000,O=C(Nc1cccc(C(F)(F)F)c1)Nc1cc(S(=O)(=O)NC2CC2)cnc1-n1ccnc1 [Compound 355]
–,1000 to 10000,Cc1cccc(C)c1NC(=O)Nc1cc(S(=O)(=O)Nc2ccccc2)ccc1-c1ccsc1 [Compound 15]
–,100 to 1000,"O=C(Nc1cccc(C(F)(F)F)c1)Nc1cc(S(=O)(=O)NCC(F)(F)F)cnc1OCC1CCOC1 (centres unmarked) [Compound 201, 6-((tetrahydrofuran-3-yl)methoxy)-N-(2,2,2-trifluoroethyl)-5-(3-(3-(trifluoromethyl)phenyl)ureido)pyridine-3-sulfonamide]"
–,100 to 1000,"O=C(Nc1ccccc1Cl)Nc1cc(S(=O)(=O)NC2CC2)ccc1-c1ccsc1 [Compound 25, 3-(3-(2-chlorophenyl)ureido)-N-cyclopropyl-4-(thiophen-3-yl)benzenesulfonamide]"
–,100 to 1000,"O=C(Nc1cc(S(=O)(=O)NCC(F)(F)F)ccc1-c1ccccc1)NC1CCCCC1 [Compound 66, 2-(3-cyclohexylureido)-N-(2,2,2-trifluoroethyl)-[1,1′-biphenyl]-4-sulfonamide]"
–,1000 to 10000,O=C(Nc1ccc(F)c(F)c1)Nc1cc(S(=O)(=O)Nc2ccccc2)ccc1-c1ccsc1 [Compound 20]
–,100 to 1000,"CC[S+]([O-])c1ccc(S(=O)(=O)NCC(F)(F)F)cc1NC(=O)Nc1cccc(C(F)(F)F)c1 (centres unmarked) [Compound 195, 4-(ethylsulfinyl)-N-(2,2,2-trifluoroethyl)-3-(3-(3-(trifluoromethyl)phenyl)ureido)benzenesulfonamide]"
–,100 to 1000,"O=C(Nc1ccccc1)Nc1cc(S(=O)(=O)NC2CC2)ccc1-c1ccccc1 [Compound 34, N-cyclopropyl-2-(3-phenylureido)-[1,1′-biphenyl]-4-sulfonamide]"
–,100 to 1000,"O=C(Nc1cc(S(=O)(=O)NC2CC2)ccc1-c1ccsc1)Nc1cccc(Cl)c1Cl [Compound 27, N-cyclopropyl-3-(3-(2,3-dichlorophenyl)ureido)-4-(thiophen-3-yl)benzenesulfonamide]"
–,100 to 1000,O=C(Nc1cccc(C(F)(F)F)c1)Nc1cc(S(=O)(=O)Nc2ccccc2)ccc1-n1ccnc1 [Compound 354]
–,100 to 1000,"O=C(Nc1cccc(F)n1)Nc1cc(S(=O)(=O)NCC(F)(F)F)ccc1-c1ccccc1 [Compound 86, 2-(3-(6-fluoropyridin-2-yl)ureido)-N-(2,2,2-trifluoroethyl)-[1,1′-biphenyl]-4-sulfonamide]"
–,100 to 1000,"O=C(Nc1ccccc1F)Nc1cc(S(=O)(=O)NCC(F)(F)F)ccc1-c1ccccc1 [Compound 33, 2-(3-(2-fluorophenyl)ureido)-N-(2,2,2-trifluoroethyl)-[1,1′-biphenyl]-4-sulfonamide]"
–,100 to 1000,"COCCCNS(=O)(=O)c1ccc(-c2ccsc2)c(NC(=O)Nc2cccc(C(F)(F)F)c2)c1 [Compound 122, N-(3-methoxypropyl)-4-(thiophen-3-yl)-3-(3-(3-(trifluoromethyl)phenyl)ureido)benzenesulfonamide]"
–,1000 to 10000,COc1ccc(-c2ccc(S(=O)(=O)Nc3ccccc3)cc2NC(=O)Nc2cccc(C(F)(F)F)c2)cc1 [Compound 59]
–,1000 to 10000,O=C(Nc1cc(Cl)cc(Cl)c1)Nc1cc(S(=O)(=O)NC2CC2)ccc1-c1ccsc1 [Compound 26]
–,100 to 1000,"O=C(Nc1cccc(C(F)(F)F)c1)Nc1cc(S(=O)(=O)NC2CC2)ccc1-c1ccccc1 [Compound 36, N-cyclopropyl-2-(3-(3-(trifluoromethyl)phenyl)ureido)-[1,1′-biphenyl]-4-sulfonamide]"
–,100 to 1000,"CC(C)n1ccc(NC(=O)Nc2cc(S(=O)(=O)NCC(F)(F)F)ccc2-c2ccccc2)n1 [Compound 92, 2-(3-(1-isopropyl-1H-pyrazol-3-yl)ureido)-N-(2,2,2-trifluoroethyl)-[1,1′-biphenyl]-4-sulfonamide]"
–,1000 to 10000,CC1(C)CCCC(NC(=O)Nc2cc(S(=O)(=O)NCC(F)(F)F)ccc2-c2ccccc2)C1 (centres unmarked) [Compound 73]
–,100 to 1000,"C#Cc1ccc(S(=O)(=O)NCC(F)(F)F)cc1NC(=O)Nc1cccc(C(F)(F)F)c1 [Compound 338, 4-ethynyl-N-(2,2,2-trifluoroethyl)-3-(3-(3-(trifluoromethyl)phenyl)ureido)benzenesulfonamide]"

# From patent US10202339B2, “Therapeutic compounds and compositions” (AGIOS PHARMACEUTICALS, INC., priority 2012, dated 2019)
